# Source: patent publication US20060276537A1, “Use of ladostigil for the treatment of multiple sclerosis” (priority 2005, published 2006)
# Marks after values point to notes of the source that are not given here.
# How the values were obtained:
# Assay type in all cases: in vivo
# [1] = system: acetylcholinesterase (AChE); assay: Cholinesterase assay (modified Ellman, ATC substrate) in brain and blood of treated EAE mice; details: for Blood AChE U/ml / Blood AchE % inhibition: blood of EAE mice; for Brain AChE U/g (Total ChE) / Brain AchE % inhibition: brain of EAE mice
# Experimental: From the mice of Example 2, acetylcholinesterase (AChE) and butyrylcholinesterase (BChE) activities were determined by a modification of Ellman's spectophotometric method using acetyltiocholine (ATC) and butyryltiocholine (BTC) as substrates.
# Homogenate of 100 mg brain tissue in 1 ml 100 mM phosphate buffer pH=8.0 was prepared. 0.4 ml of crude homogenate was added to 1.2 ml pre-warmed 4 mM 5,5′-Dithiobis(2-nitrobenzoic acid) (DTNB or Ellman's reagant); 30 μl from this mixture were added to 210 μl pre-warmed (28° C.) 50 mM phosphate buffer in a microplate; and the reaction was started by addition of 10 μl ATC or BTC (final concentration=1 mM) or water (for the blank reaction) The increase in optical density (OD) at 412 nm was monitored for 3 minutes and the slope of the straight line obtained by linear regression provided the activity in terms of ΔOD/min using SOFTMAX® software. Blank reaction was subtracted.
# Conversion of ΔOD/min into Enzyme Activity was Performed as Follows: Unit enzyme/gram tissue=OD/min*0.25/10.54*4*1000/30*11
# The same procedure was performed as with brain homogenate using 50 μl of ¼ hemolysate/DTNB mixture.
# Enzyme activity in the blood was calculated in units/1 ml whole blood.
# AChE activity was calculated as follows: AChE activity=ΔOD/min (determined with ATC)−ΔOD/min (determined with BTC)/0.7
# 0.7=BChE activity on BTC/BChE activity on ATC. It was determined by using 1.25-10^−6M BW281C51 to inhibit AChE and with ATC and BTC as substrates.
# [2] = target: T1, MAO-B (Mus musculus, UniProt Q8BW75); assay: MAO assay (14C PEA substrate) in brains of treated EAE mice
# T1 construct: in the brains of EAE mice; from tissue; host or cells: brain homogenate of ladostigil-treated EAE mice
# T1 sequence (Q8BW75 1-520): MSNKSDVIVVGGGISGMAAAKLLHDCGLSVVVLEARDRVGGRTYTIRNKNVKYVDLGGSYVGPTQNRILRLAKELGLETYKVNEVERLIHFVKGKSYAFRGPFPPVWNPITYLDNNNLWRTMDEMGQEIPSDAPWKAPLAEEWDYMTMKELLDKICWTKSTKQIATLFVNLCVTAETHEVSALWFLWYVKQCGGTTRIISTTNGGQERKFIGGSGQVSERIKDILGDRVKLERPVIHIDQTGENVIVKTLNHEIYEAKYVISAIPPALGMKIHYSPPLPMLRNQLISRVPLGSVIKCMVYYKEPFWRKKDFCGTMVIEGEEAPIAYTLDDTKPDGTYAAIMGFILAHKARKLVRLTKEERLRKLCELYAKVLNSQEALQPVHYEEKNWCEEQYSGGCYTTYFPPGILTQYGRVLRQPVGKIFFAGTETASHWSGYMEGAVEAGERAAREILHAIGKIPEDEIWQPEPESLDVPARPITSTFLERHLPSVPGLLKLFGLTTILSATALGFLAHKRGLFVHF
# Experimental: (§1) From the mice of Example 2, the level of MAO (MAO-A and MAO-B) inhibition was determined using ^14C-Labeled 2-phenylethylamine and 5-hydroxytryptamine as substrates.
# (§2) The MAO enzyme obtained from a homogenate of rat brain in 0.3M sucrose, which was centrifuged at 600 g for 15 minutes. The supernatant is diluted appropriately in 0.05M phosphate buffer, and pre-incubated with serial dilutions of test compounds for 20 minutes at 37° C. ^14C-Labeled substrates (2-phenylethylamine, hereinafter PEA; 5-hydroxytryptamine, hereinafter 5-HT) are then added, and the incubation continued for a further 20 minutes (PEA), or 30-45 minutes (5-HT). Substrate concentrations used are 50 μM (PEA) and 1 mM (5-HT). In the case of PEA, enzyme concentration is chosen so that not more than 10% of the substrate is metabolized during the course of the reaction. Deaminated products are extracted into toluene-ethyl acetate (1:1 v/v) containing 0.6% (w/v) 2,5-diphenyloxazole (ppo) prior to determination by liquid scintillation counting. Radioactivity in the eluate indicates the production of neutral and acidic metabolites formed as a result of MAO activity. Activity of MAO in the sample is expressed as a percentage of control activity in the absence of inhibitors after subtraction of appropriate blank values. The activity determined using PEA as substrate is referred to as MAO-B, and that determined using 5-HT as MAO-A. Concentrations of inhibitor producing 50% inhibition of substrate metabolism (IC50) are calculated from the inhibition curves.
# [3] = target: T2, MAO-A (Mus musculus, UniProt Q64133); assay: MAO assay (14C 5-HT substrate) in brains of treated EAE mice
# T2 construct: in the brains of EAE mice; from tissue; host or cells: brain homogenate of ladostigil-treated EAE mice
# T2 sequence (Q64133 1-526): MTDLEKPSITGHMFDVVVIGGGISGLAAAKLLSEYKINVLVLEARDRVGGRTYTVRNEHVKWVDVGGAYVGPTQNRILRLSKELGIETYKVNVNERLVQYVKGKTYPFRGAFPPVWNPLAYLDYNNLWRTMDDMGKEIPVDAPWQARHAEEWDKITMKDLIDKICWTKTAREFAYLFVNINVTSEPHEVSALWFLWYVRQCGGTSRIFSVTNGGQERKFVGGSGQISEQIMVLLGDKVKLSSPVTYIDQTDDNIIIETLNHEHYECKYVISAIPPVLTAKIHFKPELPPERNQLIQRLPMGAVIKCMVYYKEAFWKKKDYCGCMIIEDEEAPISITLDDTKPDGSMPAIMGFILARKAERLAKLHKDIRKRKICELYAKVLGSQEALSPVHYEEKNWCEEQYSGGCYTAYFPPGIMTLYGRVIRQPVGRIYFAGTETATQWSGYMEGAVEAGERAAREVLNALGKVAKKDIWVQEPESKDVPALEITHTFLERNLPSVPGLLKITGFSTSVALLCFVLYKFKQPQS
# Experimental: as §1, §2
# [4] = 51 and 70.1 mg/kg/day, doses effective in ameliorating EAE
# [5] = mouse, brain of EAE mice, 10.2 mg/kg
# [6] = mouse, brain of EAE mice, 25.5 mg/kg
# [7] = mouse, brain of EAE mice, 51 mg/kg
# [8] = mouse, brain of EAE mice, 70.1 mg/kg
compound,measurement,setting,value
"C#CCN[C@@H]1CCc2ccc(OC(=O)N(C)CC)cc21 [Ladostigil, R(+)-6-(N-methyl,N-ethyl-carbamoyloxy)-N′-propargyl-1-aminoindan]",inhibition of AChE in blood,[1]; [4],60-65%
same,inhibition of AChE in brain,[1]; [4],47-52%
same,Blood AChE U/ml,[1]; 10.2 mg/kg salt,0.85 +/− 0.17 U/ml
same,Blood AchE % inhibition,[1]; 10.2 mg/kg salt,37.4* %
same,Blood AChE U/ml,[1]; 25.5 mg/kg salt,0.73 +/− 0.12 U/ml
same,Blood AchE % inhibition,[1]; 25.5 mg/kg salt,46.3* %
same,Blood AChE U/ml,[1]; 51 mg/kg salt,0.54 +/− 0.1 U/ml
same,Blood AchE % inhibition,[1]; 51 mg/kg salt,60.2* %
same,Blood AChE U/ml,[1]; 70.1 mg/kg salt,0.48 +/− 0.1 U/ml
same,Blood AchE % inhibition,[1]; 70.1 mg/kg salt,64.9* %
same,Brain AChE U/g (Total ChE),[1]; 10.2 mg/kg salt,8.77 +/− 1.23 U/g
same,Brain AchE % inhibition,[1]; 10.2 mg/kg salt,13.4%
same,Brain AChE U/g (Total ChE),[1]; 25.5 mg/kg salt,7.42 +/− 1.29 U/g
same,Brain AchE % inhibition,[1]; 25.5 mg/kg salt,26.8* %
same,Brain AChE U/g (Total ChE),[1]; 51 mg/kg salt,5.41 +/− 0.6 U/g
same,Brain AchE % inhibition,[1]; 51 mg/kg salt,46.6* %
same,Brain AChE U/g (Total ChE),[1]; 70.1 mg/kg salt,4.85 +/− 0.65 U/g
same,Brain AchE % inhibition,[1]; 70.1 mg/kg salt,52.2* %
same,inhibition of MAO-B,"[2]; 51 and 70.1 mg/kg/day, brain",81-89%
same,MAO-B activity dpm,"[2]; brain of EAE mice, 10.2 mg/kg",8784 +/− 1047 dpm
same,MAO-B activity dpm,"[2]; brain of EAE mice, 25.5 mg/kg",4258 +/− 467 dpm
same,MAO-B activity dpm,"[2]; brain of EAE mice, 51 mg/kg",2424 +/− 1122 dpm
same,MAO-B activity dpm,"[2]; brain of EAE mice, 70.1 mg/kg",1382 +/− 250 dpm
same,inhibition at 10.2 mg/kg,[2]; [5],32%
same,inhibition at 25.5 mg/kg,[2]; [6],67%
same,inhibition at 51 mg/kg,[2]; [7],81%
same,inhibition at 70.1 mg/kg,[2]; [8],89%
same,MAO-A inhibition,"[3]; 51 and 70.1 mg/kg/day, brain",55-60%
same,MAO-A activity dpm,"[3]; brain of EAE mice, 10.2 mg/kg",3702 +/− 119 dpm
same,MAO-A activity dpm,"[3]; brain of EAE mice, 25.5 mg/kg",2672 +/− 128 dpm
same,MAO-A activity dpm,"[3]; brain of EAE mice, 51 mg/kg",1822 +/− 115 dpm
same,MAO-A activity dpm,"[3]; brain of EAE mice, 70.1 mg/kg",1621 +/− 158 dpm
same,inhibition at 10.2 mg/kg,[3]; [5],9%
same,inhibition at 25.5 mg/kg,[3]; [6],34%
same,inhibition at 51 mg/kg,[3]; [7],55%
same,inhibition at 70.1 mg/kg,[3]; [8],60%
